Laboratory results as given in ChEMBL document CHEMBL1201862, “PubChem BioAssay data set” (2004).
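Test compounds were applied to cells in 96-well plates for 48 hours at 5 doses. The concentration for 50% growth inhibition is given as GI50.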 Activity calls are given as the source filed them. Cut-off read from the data, not from the text of the source: active = GI50 up to about 1.1 µM and inactive = higher.

Experiments:
Assay in all cases: inhibition of tumour cell growth, NCI panel, 48 h
[1] = system: ACHN
[2] = system: CAKI-1
[3] = system: EKVX
[4] = system: HL-60
[5] = system: HT-29
[6] = system: K562
[7] = system: Malme-3M
[8] = system: NCI-H226
[9] = system: NCI-H23
[10] = system: NCI-H522
[11] = system: NCI/ADR-RES
[12] = system: OVCAR-3
[13] = system: OVCAR-4
[14] = system: RXF 393
[15] = system: SF-268
[16] = system: SF-539
[17] = system: UACC-257
[18] = system: UACC-62
[19] = system: MDA-MB-231

Measured: GI50

CN(C)CCCn1c2c3ccccc3ccc2c2oc(=O)c3ccccc3c21
inactive: [1] 6.79 µM | [2] 7.76 µM | [3] 12.7 µM | [4] 2.28 µM | [5] 5.53 µM | [6] 2.45 µM | [7] 7.64 µM | [8] > 35.2 µM | [9] 6.82 µM | [10] 3.52 µM | [11] 10.8 µM | [12] 5.48 µM | [13] 6.38 µM | [14] 1.33 µM | [15] 5.41 µM | [16] 4.66 µM | [17] 8.65 µM | [18] 8.63 µM

CCN(CC)CCNC(=O)c1ccc([N+](=O)[O-])cc1OC
inactive: [1] > 100 µM | [2] > 100 µM | [3] > 100 µM | [4] > 100 µM | [5] > 100 µM | [6] > 100 µM | [7] > 100 µM | [8] > 100 µM | [9] > 100 µM | [10] > 100 µM | [12] > 100 µM | [13] > 100 µM | [14] > 100 µM | [15] > 100 µM | [16] > 100 µM | [17] > 100 µM | [18] > 100 µM

C[C@H](OCc1ccccc1)C(=O)N1CCS(=O)(=O)N2CCC[C@@H]2C1=O
inactive: [1] > 100 µM | [2] > 100 µM | [3] > 100 µM | [4] > 100 µM | [5] > 100 µM | [6] > 100 µM | [7] > 100 µM | [8] > 100 µM | [9] > 100 µM | [10] > 100 µM | [12] > 100 µM | [13] > 100 µM | [14] > 100 µM | [15] > 100 µM | [16] > 100 µM | [17] > 100 µM | [18] > 100 µM

C/C(=N\NS(=O)(=O)c1ccc(C)cc1)c1ccccn1
inactive: [1] 26.1 µM | [2] 36 µM | [3] 35.5 µM | [4] 34 µM | [5] 44.5 µM | [6] 83.8 µM | [19] > 100 µM | [7] 60.3 µM | [8] 32.9 µM | [9] 54.1 µM | [11] 38 µM | [12] 50.7 µM | [13] 68.2 µM | [14] > 100 µM | [15] 67.3 µM | [16] 40.8 µM | [17] 81.8 µM | [18] 40.2 µM

COc1ccc2[nH]c(=O)cc(C)c2c1[N+](=O)[O-]
inactive: [1] > 100 µM | [2] 31.7 µM | [3] 82 µM | [4] > 100 µM | [5] > 100 µM | [6] > 100 µM | [7] > 100 µM | [8] > 100 µM | [9] > 100 µM | [10] 47.4 µM | [12] > 100 µM | [13] > 100 µM | [14] > 10 µM | [15] 82 µM | [16] > 100 µM | [17] > 100 µM | [18] > 100 µM

CC(=O)C1=CCC2c3[nH]c4ccccc4c3CCN2C1 (stereo unspecified)
inactive: [1] 78 µM | [3] 67.1 µM | [4] 45.3 µM | [5] 31.3 µM | [6] 31 µM | [7] 72.1 µM | [8] > 100 µM | [9] 46.7 µM | [10] 24.7 µM | [12] 31.7 µM | [13] 35.6 µM | [14] 35.8 µM | [15] 69.2 µM | [16] 26.6 µM | [17] > 100 µM

O=C(c1ccco1)N(C(=S)N1CCN(c2ccccn2)CC1)c1ccccc1
inactive: [1] > 100 µM | [2] > 100 µM | [4] > 100 µM | [5] > 100 µM | [6] > 100 µM | [7] > 100 µM | [8] 18.7 µM | [9] > 100 µM | [10] > 100 µM | [12] > 100 µM | [13] > 100 µM | [14] > 100 µM | [15] > 100 µM | [16] > 100 µM | [17] > 100 µM | [18] > 100 µM

CC12CCCCC1(C)C2Sc1ccccc1 (stereo unspecified)
inactive: [1] 46.2 µM | [2] > 56.1 µM | [3] > 57.3 µM | [4] 17.5 µM | [5] 37.2 µM | [6] 13.5 µM | [7] 63 µM | [8] 54.3 µM | [9] 52.6 µM | [10] 28.9 µM | [12] 27.9 µM | [13] > 73.3 µM | [14] 23.9 µM | [15] 42.3 µM | [16] > 100 µM | [17] 39.1 µM | [18] 56.9 µM

Cc1ccc(NC(=O)C(=O)CC(=O)c2c(C)[n+]([O-])c3ccccc3[n+]2[O-])cc1C
inactive: [1] > 100 µM | [2] > 100 µM | [3] > 100 µM | [4] > 100 µM | [5] > 100 µM | [6] > 100 µM | [7] > 100 µM | [8] > 100 µM | [9] > 100 µM | [10] 66.2 µM | [12] 48.4 µM | [13] > 100 µM | [14] 44.7 µM | [15] > 100 µM | [16] > 100 µM | [17] > 100 µM | [18] > 100 µM

Nc1ccccc1-c1noc(=O)[nH]1
inactive: [1] > 100 µM | [2] > 100 µM | [3] > 100 µM | [5] > 100 µM | [6] > 100 µM | [19] > 100 µM | [8] > 100 µM | [9] > 100 µM | [10] > 100 µM | [11] > 100 µM | [12] > 100 µM | [13] > 100 µM | [14] > 100 µM | [15] > 100 µM | [16] > 100 µM | [17] > 100 µM | [18] > 100 µM

COC(=O)C(=O)C(C(=O)C(=O)Nc1ccc(Cl)cc1Cl)c1nc2ccc(Cl)cc2nc1O (stereo unspecified)
inactive: [1] > 100 µM | [2] > 100 µM | [3] 17.1 µM | [4] > 100 µM | [5] > 100 µM | [19] > 100 µM | [8] 49 µM | [9] > 100 µM | [10] > 100 µM | [11] > 100 µM | [12] > 100 µM | [13] > 100 µM | [15] > 100 µM | [16] > 100 µM | [17] > 100 µM | [18] > 100 µM

CC1=C(C(=O)Nc2c(C)cccc2C)C(c2ccccc2Cl)C(C(=O)Nc2c(C)cccc2C)=C(C)N1
inactive: [1] > 100 µM | [2] > 100 µM | [3] > 100 µM | [4] > 100 µM | [5] > 100 µM | [6] > 100 µM | [7] > 100 µM | [8] > 100 µM | [9] > 100 µM | [10] > 100 µM | [12] > 100 µM | [13] > 100 µM | [14] > 100 µM | [15] > 100 µM | [16] > 100 µM | [17] > 100 µM
